Measurements published in patent publication US6627774B2, “N-deacetylthiocolchicine derivatives and pharmaceutical compositions containing them” (Indena S.p.A., priority 2001, dated 2003).

Tested on: MCF7-ADRr
Type: cell-based
Description: The cytotoxic activity was evaluated according to M. C. Alley et al., Cancer Research, 48, 589-601, […].

COc1cc2c(c(OC)c1OC)-c1ccc(SC)c(=O)cc1[C@@H](NC(C)=O)CC2 [Thiocolchicine]
MCF7-ADRr/MCF7: 20000
